From patent US20260232767A1, “INTERLEUKIN-23 RECEPTOR ANTAGONIST PEPTIDES FOR USE IN THE TREATMENT OF PSORIASIS” (Janssen Pharmaceutica NV, priority 2023, published 2026)

System: subjects with moderate-to-severe plaque psoriasis
Experiment: Safety, adverse events, Example 2 through Week 56
Type: in vivo, human
Description: The LTE safety analysis was based on randomized participants in Example who entered the present long-term extension study and received at least one dose of study intervention (including a partial dose) during the study period.

[1] = 100 mg QD, Week 16 through Week 56
[2] = 100 mg QD, LTE Safety analysis set

## CC(=O)NCCCC[C@@H]1NC(=O)[C@H](Cc2c[nH]c3c(C)cccc23)NC(=O)[C@H]([C@@H](C)O)NC(=O)[C@H](CC(N)=O)NC(=O)[C@@H](NC(C)=O)C(C)(C)SSC(C)(C)[C@@H](C(=O)N[C@@H](Cc2ccc(OCCN)cc2)C(=O)N[C@@H](Cc2ccc3ccccc3c2)C(=O)NC2(C(=O)N[C@@H](CCC(=O)O)C(=O)N[C@@H](CC(N)=O)C(=O)N[C@@H](Cc3cccnc3)C(=O)N(C)CC(N)=O)CCOCC2)NC1=O [IL-23 receptor antagonist peptide, Ac-[Pen]*-N-T-[W(7-Me)]-[Lys(Ac)]-[Pen]*-Phe[4-(2-aminoethoxy)]-[2-Nal]-[THP]-E-N-[3-Pal]-Sarc-NH2 (*[Pen]-[Pen]* formdisulfidebond)]
100 mg BID, through Week 56
  Rhinorrhoea: % of subjects: (2.4%)
  Rhinorrhoea: number of subjects: 1
  Seasonal allergy: % of subjects: (2.4%)
  Seasonal allergy: number of subjects: 1
  Skin and subcutaneous tissue disorders: % of subjects: (7.1%)
  Skin and subcutaneous tissue disorders: number of subjects: 3
  Skin laceration: number of subjects: 0
  Skin papilloma: % of subjects: (2.4%)
  Skin papilloma: number of subjects: 1
  Social circumstances: number of subjects: 0
  Steatohepatitis: number of subjects: 0
  Subjects with AE leading to discontinuation: Abdominal pain: 0
  Subjects with AE leading to discontinuation: Alanine aminotransferase increased: 0
  Subjects with AE leading to discontinuation: Aspartate aminotransferase increased: 0
  Subjects with AE leading to discontinuation: Asthenia: 0
  Subjects with AE leading to discontinuation: Chills: 0
  Subjects with AE leading to discontinuation: Ear and labyrinth disorders: 0
  Subjects with AE leading to discontinuation: Gamma-glutamyltransferase increased: 0
  Subjects with AE leading to discontinuation: General disorders and administration site conditions: 0
  Subjects with AE leading to discontinuation: Headache: 0
  Subjects with AE leading to discontinuation: Insomnia: 0
  Subjects with AE leading to discontinuation: Investigations: 0
  Subjects with AE leading to discontinuation: Nausea: 0
  Subjects with AE leading to discontinuation: Nervous system disorders: 0
  Subjects with AE leading to discontinuation: Proctalgia: 0
  Subjects with AE leading to discontinuation: Psoriasis: 0
  Subjects with AE leading to discontinuation: Psychiatric disorders: 0
  Subjects with AE leading to discontinuation: Skin and subcutaneous tissue disorders: 0
  Subjects with AE leading to discontinuation: Suicide attempt: 0
  Subjects with AE leading to discontinuation: Transaminases increased: 0
  Subjects with AE leading to discontinuation: Vertigo: 0
  Subjects with AE leading to discontinuation: Vomiting: 0
  Subjects with AE leading to discontinuation: Weight increased: 0
  Subjects with treatment-emergent AE: Bronchitis: 0
  Subjects with treatment-emergent AE: Gastrointestinal disorders: 7
  Subjects with treatment-emergent AE: Nasopharyngitis: 5
  Subjects with treatment-emergent serious AE: COVID-19: 0
  Subjects with treatment-emergent serious AE: Cardiac disorders: 0
  Subjects with treatment-emergent serious AE: Cerebrovascular accident: 0
  Subjects with treatment-emergent serious AE: Coronary artery disease: 0
  Subjects with treatment-emergent serious AE: Diverticulitis: 0
  Subjects with treatment-emergent serious AE: Foot deformity: 0
  Subjects with treatment-emergent serious AE: General disorders and administration site conditions: 0
  Subjects with treatment-emergent serious AE: Infected cyst: 0
  Subjects with treatment-emergent serious AE: Infections and infestations: 0
  Subjects with treatment-emergent serious AE: Injury, poisoning and procedural complications: 0
  Subjects with treatment-emergent serious AE: Intervertebral disc protrusion: 0
  Subjects with treatment-emergent serious AE: Ligament injury: 0
  Subjects with treatment-emergent serious AE: Musculoskeletal and connective tissue disorders: 0
  Subjects with treatment-emergent serious AE: Nervous system disorders: 0
  Subjects with treatment-emergent serious AE: Non-cardiac chest pain: 0
  Subjects with treatment-emergent serious AE: Psychiatric disorders: 0
  Subjects with treatment-emergent serious AE: Respiratory, thoracic and mediastinal disorders: 0
  Subjects with treatment-emergent serious AE: Suicide attempt: 0
  Subjects with treatment-emergent serious AE: Tonsillar hypertrophy: 0
  Subjects with treatment-emergent serious AE: Ventricular dysfunction: 0
  Suicide attempt: number of subjects: 0
  Sunburn: number of subjects: 0
  Thrombocytopenia: number of subjects: 0
  Thrombocytosis: % of subjects: (2.4%)
  Thrombocytosis: number of subjects: 1
  Tonsillar hypertrophy: number of subjects: 0
  Tooth fracture: % of subjects: (2.4%)
  Tooth fracture: number of subjects: 1
  Type 2 diabetes mellitus: % of subjects: (2.4%)
  Type 2 diabetes mellitus: number of subjects: 1
  Urinary tract disorder: % of subjects: (2.4%)
  Urinary tract disorder: number of subjects: 1
  Uterine leiomyoma: % of subjects: (2.4%)
  Uterine leiomyoma: number of subjects: 1
  Vascular disorders: % of subjects: (4.8%)
  Vascular disorders: number of subjects: 2
  Ventricular dysfunction: number of subjects: 0
  Vertigo: number of subjects: 0
  Vitamin D deficiency: number of subjects: 0
[1]
  Number of subjects with treatment-emergent AE: Cholelithiasis: 1
  Number of subjects with treatment-emergent AE: Ear and labyrinth disorders: 1
  Number of subjects with treatment-emergent AE: Endocrine disorders: 0
  Number of subjects with treatment-emergent AE: Eye disorders: 0
  Number of subjects with treatment-emergent AE: Eyelid skin dryness: 0
  Number of subjects with treatment-emergent AE: Goiter: 0
  Number of subjects with treatment-emergent AE: Hepatobiliary disorders: 1
  Number of subjects with treatment-emergent AE: Hypertransaminasemia: 0
  Number of subjects with treatment-emergent AE: Immune system disorders: 0
  Number of subjects with treatment-emergent AE: Insomnia: 0
  Number of subjects with treatment-emergent AE: Ocular cyst: 0
  Number of subjects with treatment-emergent AE: Psychiatric disorders: 0
  Number of subjects with treatment-emergent AE: Retinal vein occlusion: 0
  Number of subjects with treatment-emergent AE: Seasonal allergy: 0
  Number of subjects with treatment-emergent AE: Vertigo: 1
  Subjects with treatment-emergent AE: Cholelithiasis (%): (2.5%)
  Subjects with treatment-emergent AE: Ear and labyrinth disorders (%): (2.5%)
  Subjects with treatment-emergent AE: Hepatobiliary disorders (%): (2.5%)
  Subjects with treatment-emergent AE: Vertigo (%): (2.5%)
[2]
  Subjects with adverse event: Alanine aminotransferase increased: 0
  Subjects with adverse event: Aspartate aminotransferase increased: 0
  Subjects with adverse event: Bronchitis: 0
  Subjects with adverse event: Meniscus injury: 0
  Subjects with adverse event: Sinusitis: 0
  Subjects with adverse event: Urinary tract infection: 0
  Subjects with serious adverse event: Cerebrovascular accident: 0
  Subjects with serious adverse event: Coronary artery disease: 0
  Subjects with serious adverse event: Foot deformity: 0
  Subjects with serious adverse event: Ligament injury: 0
  Subjects with serious adverse event: Non-cardiac chest pain: 0
  Subjects with serious adverse event: Tonsillar hypertrophy: 0
  Subjects with serious adverse event: Uterine leiomyoma: 0
  Subjects with serious adverse event: Ventricular dysfunction: 0
100 mg QD, Week 16-56
  Subjects with AE leading to discontinuation: Alanine aminotransferase increased: 0
  Subjects with AE leading to discontinuation: Aspartate aminotransferase increased: 0
  Subjects with AE leading to discontinuation: Asthenia: 0
  Subjects with AE leading to discontinuation: Gamma-glutamyltransferase increased: 0
  Subjects with AE leading to discontinuation: Insomnia: 0
  Subjects with AE leading to discontinuation: Investigations: 0
  Subjects with AE leading to discontinuation: Proctalgia: 0
  Subjects with AE leading to discontinuation: Psoriasis: 0
  Subjects with AE leading to discontinuation: Psychiatric disorders: 0
  Subjects with AE leading to discontinuation: Skin and subcutaneous tissue disorders: 0
  Subjects with COVID-19 associated AE of interest: SARS-CoV-2 test positive: 0
  Subjects with treatment-emergent AE: Alanine aminotransferase increased: 0
  Subjects with treatment-emergent AE: Aspartate aminotransferase increased: 0
